# Patent US20220088016A1, “CANCER TREATMENT USING MULTI-TARGETED KINASE INHIBITOR IN COMBINATION OF PROTEIN KINASE BIOMARKERS” (ZHEJIANG CROWNMAB BIOTECH CO. LTD., priority 2019, published 2022)
# Columns and labels:
# CHEK2 = CHEK2 (Homo sapiens, UniProt O96017); assay: Kinase profiling; assay type: binding; details: read-out: % Ctrl @ 1000 nM
# CSNK2A2 = CSNK2A2 (Homo sapiens, UniProt P19784); assay: Kinase profiling; assay type: binding; details: read-out: % Ctrl @ 1000 nM
# [1] = molecular target: RSK3 (Kin.Dom.1-N-terminal) (Homo sapiens, UniProt Q15349); assay: Kinase profiling; assay type: binding; details: read-out: % Ctrl @ 1000 nM
# SGK2 = SGK2 (Homo sapiens, UniProt Q9HBY8); assay: Kinase profiling; assay type: binding; details: read-out: % Ctrl @ 1000 nM
# EGFR (L858R, T790M) = EGFR (L858R, T790M) (Homo sapiens, UniProt P00533, L858R/T790M); assay: Kinase profiling; assay type: binding; details: read-out: % Ctrl @ 1000 nM
# [2] = test system: CD4 (T cell surface marker); assay: CD4 IHC test in MC-38 tumor; assay type: in vivo, mouse; details: MC-38 tumors; vs vehicle group
# Procedure: MC38 tumor tissues were collected at the end of the in vivo efficacy trial. The tumor tissue was then embedded in paraffin. The expression of CD3/CD4/CD8/F4-80 were tested by immunohistochemistry stain.
# CSNK1A1 = CSNK1A1 (Homo sapiens, UniProt P48729); assay: Kinase profiling; assay type: binding; details: read-out: % Ctrl @ 1000 nM
# MEK3 = molecular target: T1, MEK3 (Homo sapiens, UniProt P46734); assay: Kinase profiling; assay type: binding; details: read-out: % Ctrl @ 1000 nM
# T1 construct: T7 phage fusion (stated for most kinases of the panel only); made in house; host or cells: T7 phage in E. coli (BL21-derived) or HEK-293 cells
# T1 sequence (P46734 whole entry, the tested form may be a part): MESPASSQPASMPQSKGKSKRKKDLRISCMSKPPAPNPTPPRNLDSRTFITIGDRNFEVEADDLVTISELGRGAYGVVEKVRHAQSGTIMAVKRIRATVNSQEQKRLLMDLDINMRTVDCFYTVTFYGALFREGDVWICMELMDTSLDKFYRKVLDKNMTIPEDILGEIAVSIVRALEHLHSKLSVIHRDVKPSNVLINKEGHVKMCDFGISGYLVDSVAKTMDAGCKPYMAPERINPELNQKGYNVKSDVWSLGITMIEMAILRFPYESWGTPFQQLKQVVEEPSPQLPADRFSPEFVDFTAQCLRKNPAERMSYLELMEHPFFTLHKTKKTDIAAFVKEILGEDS
# CSNK1E = CSNK1E (Homo sapiens, UniProt P49674); assay: Kinase profiling; assay type: binding; details: read-out: % Ctrl @ 1000 nM
# MAP4K4 = MAP4K4 (Homo sapiens, UniProt O95819); assay: Kinase profiling; assay type: binding; details: read-out: % Ctrl @ 1000 nM
# MAP4K4, sequence (O95819 whole entry): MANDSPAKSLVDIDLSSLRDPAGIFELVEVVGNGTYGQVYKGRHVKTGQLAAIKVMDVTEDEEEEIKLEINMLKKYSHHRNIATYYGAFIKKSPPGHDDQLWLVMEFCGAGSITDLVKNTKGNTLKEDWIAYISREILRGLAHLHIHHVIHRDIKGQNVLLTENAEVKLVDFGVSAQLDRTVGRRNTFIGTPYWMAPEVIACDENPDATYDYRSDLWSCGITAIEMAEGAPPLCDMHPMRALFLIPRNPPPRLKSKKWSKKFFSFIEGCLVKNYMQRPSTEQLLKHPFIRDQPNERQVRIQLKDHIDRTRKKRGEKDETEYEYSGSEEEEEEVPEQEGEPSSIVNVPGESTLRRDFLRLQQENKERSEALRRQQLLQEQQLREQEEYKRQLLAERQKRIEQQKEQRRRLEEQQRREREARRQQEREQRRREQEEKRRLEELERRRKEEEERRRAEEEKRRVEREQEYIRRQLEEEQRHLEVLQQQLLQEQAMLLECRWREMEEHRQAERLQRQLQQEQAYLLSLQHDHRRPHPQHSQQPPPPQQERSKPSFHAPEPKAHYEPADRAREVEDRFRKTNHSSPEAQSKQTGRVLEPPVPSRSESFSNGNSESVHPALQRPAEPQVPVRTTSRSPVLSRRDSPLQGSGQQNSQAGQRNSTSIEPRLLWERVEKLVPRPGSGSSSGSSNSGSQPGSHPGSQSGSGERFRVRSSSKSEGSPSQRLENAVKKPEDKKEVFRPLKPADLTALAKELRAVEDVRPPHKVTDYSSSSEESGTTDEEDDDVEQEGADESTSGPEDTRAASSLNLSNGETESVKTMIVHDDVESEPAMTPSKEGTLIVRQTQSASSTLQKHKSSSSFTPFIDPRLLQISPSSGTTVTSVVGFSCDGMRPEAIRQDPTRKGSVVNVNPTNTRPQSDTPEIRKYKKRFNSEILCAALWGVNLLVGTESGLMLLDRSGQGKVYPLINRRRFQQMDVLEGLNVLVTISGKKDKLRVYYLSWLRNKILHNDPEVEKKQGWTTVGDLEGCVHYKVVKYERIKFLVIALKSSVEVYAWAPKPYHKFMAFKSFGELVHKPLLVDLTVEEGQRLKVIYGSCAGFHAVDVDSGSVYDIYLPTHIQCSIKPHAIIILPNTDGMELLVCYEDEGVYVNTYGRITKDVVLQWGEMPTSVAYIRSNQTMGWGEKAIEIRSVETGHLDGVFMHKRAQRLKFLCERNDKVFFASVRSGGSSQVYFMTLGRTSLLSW
# MKNK2 = molecular target: T2, MKNK2 (Homo sapiens, UniProt Q9HBH9); assay: Kinase profiling; assay type: binding; details: read-out: % Ctrl @ 1000 nM
# T2 construct: T7 phage fusion (stated for most kinases of the panel only); made in house; host or cells: T7 phage in E. coli (BL21-derived) or HEK-293 cells
# YSK1 = YSK1 (Homo sapiens, UniProt O00506); assay: Kinase profiling; assay type: binding; details: read-out: % Ctrl @ 1000 nM
# EPHA1 = EPHA1 (Homo sapiens, UniProt P21709); assay: Kinase profiling; assay type: binding; details: read-out: % Ctrl @ 1000 nM
# EPHA1, sequence (P21709 26-976): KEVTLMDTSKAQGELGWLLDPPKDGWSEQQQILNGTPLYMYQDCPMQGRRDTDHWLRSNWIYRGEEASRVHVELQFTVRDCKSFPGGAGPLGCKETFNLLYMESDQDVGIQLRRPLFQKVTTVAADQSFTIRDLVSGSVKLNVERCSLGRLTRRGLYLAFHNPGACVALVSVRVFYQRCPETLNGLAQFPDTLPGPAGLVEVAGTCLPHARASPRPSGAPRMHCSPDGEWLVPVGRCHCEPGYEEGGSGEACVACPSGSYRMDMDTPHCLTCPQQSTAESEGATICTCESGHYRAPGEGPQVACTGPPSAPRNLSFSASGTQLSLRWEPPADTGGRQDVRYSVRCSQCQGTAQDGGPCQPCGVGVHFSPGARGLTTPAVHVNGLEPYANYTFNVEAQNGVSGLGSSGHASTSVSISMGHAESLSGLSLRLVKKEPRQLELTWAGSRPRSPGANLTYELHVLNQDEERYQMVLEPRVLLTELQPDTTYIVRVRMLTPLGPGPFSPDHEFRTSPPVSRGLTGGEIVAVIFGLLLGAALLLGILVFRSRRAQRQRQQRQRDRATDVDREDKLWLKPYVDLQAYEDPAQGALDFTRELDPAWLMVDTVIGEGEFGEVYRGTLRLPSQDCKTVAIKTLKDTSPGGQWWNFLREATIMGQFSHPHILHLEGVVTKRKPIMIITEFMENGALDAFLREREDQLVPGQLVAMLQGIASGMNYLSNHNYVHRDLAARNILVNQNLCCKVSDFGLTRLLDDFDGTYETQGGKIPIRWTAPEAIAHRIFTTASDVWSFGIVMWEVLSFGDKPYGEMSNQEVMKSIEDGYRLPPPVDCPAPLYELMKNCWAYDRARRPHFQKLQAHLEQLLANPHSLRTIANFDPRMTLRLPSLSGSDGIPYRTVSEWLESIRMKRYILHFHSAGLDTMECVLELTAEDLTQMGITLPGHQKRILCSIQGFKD
# [3] = molecular target: RSK3 (Kin.Dom.2-C-terminal) (Homo sapiens, UniProt Q15349); assay: Kinase profiling; assay type: binding; details: read-out: % Ctrl @ 1000 nM
# LTK = LTK (Homo sapiens, UniProt P29376); assay: Kinase profiling; assay type: binding; details: read-out: % Ctrl @ 1000 nM
# LTK, sequence (P29376 17-864): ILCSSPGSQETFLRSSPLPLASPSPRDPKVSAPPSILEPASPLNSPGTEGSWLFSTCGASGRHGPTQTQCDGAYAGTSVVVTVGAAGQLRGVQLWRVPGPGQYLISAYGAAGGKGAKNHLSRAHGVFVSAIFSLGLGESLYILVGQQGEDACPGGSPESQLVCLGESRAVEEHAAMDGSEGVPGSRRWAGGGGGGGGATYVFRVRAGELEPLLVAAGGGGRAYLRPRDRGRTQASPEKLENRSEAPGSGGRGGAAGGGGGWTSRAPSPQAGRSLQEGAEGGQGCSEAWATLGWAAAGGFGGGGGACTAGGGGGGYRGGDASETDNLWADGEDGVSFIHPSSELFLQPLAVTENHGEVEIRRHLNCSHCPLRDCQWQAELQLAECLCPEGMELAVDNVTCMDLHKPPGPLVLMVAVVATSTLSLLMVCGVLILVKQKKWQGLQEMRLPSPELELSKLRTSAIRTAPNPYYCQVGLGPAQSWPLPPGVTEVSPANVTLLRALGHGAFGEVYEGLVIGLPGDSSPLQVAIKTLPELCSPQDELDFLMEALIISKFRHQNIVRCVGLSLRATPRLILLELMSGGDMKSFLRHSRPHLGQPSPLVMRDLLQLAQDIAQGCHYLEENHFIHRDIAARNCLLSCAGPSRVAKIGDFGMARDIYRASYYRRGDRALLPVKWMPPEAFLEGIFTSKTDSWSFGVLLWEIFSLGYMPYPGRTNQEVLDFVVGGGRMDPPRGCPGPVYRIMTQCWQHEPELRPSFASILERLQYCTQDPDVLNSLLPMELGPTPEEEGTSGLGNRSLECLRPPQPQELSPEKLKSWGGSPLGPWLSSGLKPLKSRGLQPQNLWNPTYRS
# NEK6 = molecular target: T3, NEK6 (Homo sapiens, UniProt Q9HC98); assay: Kinase profiling; assay type: binding; details: read-out: % Ctrl @ 1000 nM
# T3 construct: T7 phage fusion (said for most assays); made in house
# TIE1 = TIE1 (Homo sapiens, UniProt P35590); assay: Kinase profiling; assay type: binding; details: read-out: % Ctrl @ 1000 nM
# LIMK1 = LIMK1 (Homo sapiens, UniProt P53667); assay: Kinase profiling; assay type: binding; details: read-out: % Ctrl @ 1000 nM
# PRKD1 = PRKD1 (Homo sapiens, UniProt Q15139); assay: Kinase profiling; assay type: binding; details: read-out: % Ctrl @ 1000 nM
# BLK = BLK (Homo sapiens, UniProt P51451); assay: Kinase profiling; assay type: binding; details: read-out: % Ctrl @ 1000 nM
# NEK7 = molecular target: T4, NEK7 (Homo sapiens, UniProt Q8TDX7); assay: Kinase profiling; assay type: binding; details: read-out: % Ctrl @ 1000 nM
# T4 construct: T7 phage fusion (said for most assays); made in house
# [4] = molecular target: ABL1 (F317I)-nonphosphorylated (Homo sapiens, UniProt P00519, F317I); assay: Kinase profiling; assay type: binding; details: read-out: % Ctrl @ 1000 nM
# ABL1 (F317I)-nonphosphorylated, sequence (P00519 whole entry F317I): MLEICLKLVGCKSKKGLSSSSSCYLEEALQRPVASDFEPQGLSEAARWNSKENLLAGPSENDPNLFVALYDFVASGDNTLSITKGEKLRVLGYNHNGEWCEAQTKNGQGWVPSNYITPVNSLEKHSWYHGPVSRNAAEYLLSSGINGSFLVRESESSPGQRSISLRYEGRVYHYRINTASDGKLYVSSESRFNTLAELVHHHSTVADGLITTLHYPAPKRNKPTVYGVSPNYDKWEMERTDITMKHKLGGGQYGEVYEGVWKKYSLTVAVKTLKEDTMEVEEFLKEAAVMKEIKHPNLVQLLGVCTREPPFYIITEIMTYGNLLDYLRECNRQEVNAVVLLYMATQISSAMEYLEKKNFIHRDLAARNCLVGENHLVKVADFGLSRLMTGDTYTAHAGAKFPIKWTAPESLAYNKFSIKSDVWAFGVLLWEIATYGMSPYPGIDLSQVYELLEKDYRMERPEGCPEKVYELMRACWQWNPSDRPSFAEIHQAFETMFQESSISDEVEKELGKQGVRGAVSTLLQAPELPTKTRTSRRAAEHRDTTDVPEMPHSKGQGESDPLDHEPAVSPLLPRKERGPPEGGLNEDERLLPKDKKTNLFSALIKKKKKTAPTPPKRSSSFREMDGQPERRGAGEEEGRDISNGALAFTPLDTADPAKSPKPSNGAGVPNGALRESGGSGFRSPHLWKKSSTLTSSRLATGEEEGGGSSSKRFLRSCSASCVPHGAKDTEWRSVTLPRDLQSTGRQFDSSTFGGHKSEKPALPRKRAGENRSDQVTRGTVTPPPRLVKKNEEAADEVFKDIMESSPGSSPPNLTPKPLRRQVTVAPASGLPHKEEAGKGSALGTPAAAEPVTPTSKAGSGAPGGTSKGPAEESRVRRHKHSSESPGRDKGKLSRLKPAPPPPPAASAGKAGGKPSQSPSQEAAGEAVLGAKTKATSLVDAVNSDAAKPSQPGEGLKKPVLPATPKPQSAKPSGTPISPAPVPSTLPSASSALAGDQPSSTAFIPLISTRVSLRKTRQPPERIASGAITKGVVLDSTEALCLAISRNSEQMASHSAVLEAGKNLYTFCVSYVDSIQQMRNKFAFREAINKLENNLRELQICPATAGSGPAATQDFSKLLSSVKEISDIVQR
# CDK2 = CDK2 (Homo sapiens, UniProt P24941); assay: Kinase profiling; assay type: binding; details: read-out: % Ctrl @ 1000 nM
# TRKB = TRKB (Homo sapiens, UniProt Q16620); assay: Kinase profiling; assay type: binding; details: read-out: % Ctrl @ 1000 nM
# FRK = FRK (Homo sapiens, UniProt P42685); assay: Kinase profiling; assay type: binding; details: read-out: % Ctrl @ 1000 nM
# TRKA = TRKA (Homo sapiens, UniProt P04629); assay: Kinase profiling; assay type: binding; details: read-out: % Ctrl @ 1000 nM
# YSK4 = YSK4 (Homo sapiens, UniProt Q56UN5); assay: Kinase profiling; assay type: binding; details: read-out: % Ctrl @ 1000 nM
# DDR1 = DDR1 (Homo sapiens, UniProt Q08345); assay: Kinase profiling; assay type: binding; details: read-out: % Ctrl @ 1000 nM
# PFTAIRE2 = PFTAIRE2 (Homo sapiens, UniProt Q96Q40); assay: Kinase profiling; assay type: binding; details: read-out: % Ctrl @ 1000 nM
# ERK3 = ERK3 (Homo sapiens, UniProt Q16659); assay: Kinase profiling; assay type: binding; details: read-out: % Ctrl @ 1000 nM
# NDR2 = molecular target: T5, NDR2 (Homo sapiens, UniProt Q9Y2H1); assay: Kinase profiling; assay type: binding; details: read-out: % Ctrl @ 1000 nM
# T5 construct: T7 phage fusion (said for most assays); made in house
# EGFR (G719S) = EGFR (G719S) (Homo sapiens, UniProt P00533, G719S); assay: Kinase profiling; assay type: binding; details: read-out: % Ctrl @ 1000 nM
# OSR1 = molecular target: T6, OSR1 (Homo sapiens, UniProt O95747); assay: Kinase profiling; assay type: binding; details: read-out: % Ctrl @ 1000 nM
# T6 construct: T7 phage fusion (said for most assays); made in house
# T6 sequence (O95747 whole entry, the tested form may be a part): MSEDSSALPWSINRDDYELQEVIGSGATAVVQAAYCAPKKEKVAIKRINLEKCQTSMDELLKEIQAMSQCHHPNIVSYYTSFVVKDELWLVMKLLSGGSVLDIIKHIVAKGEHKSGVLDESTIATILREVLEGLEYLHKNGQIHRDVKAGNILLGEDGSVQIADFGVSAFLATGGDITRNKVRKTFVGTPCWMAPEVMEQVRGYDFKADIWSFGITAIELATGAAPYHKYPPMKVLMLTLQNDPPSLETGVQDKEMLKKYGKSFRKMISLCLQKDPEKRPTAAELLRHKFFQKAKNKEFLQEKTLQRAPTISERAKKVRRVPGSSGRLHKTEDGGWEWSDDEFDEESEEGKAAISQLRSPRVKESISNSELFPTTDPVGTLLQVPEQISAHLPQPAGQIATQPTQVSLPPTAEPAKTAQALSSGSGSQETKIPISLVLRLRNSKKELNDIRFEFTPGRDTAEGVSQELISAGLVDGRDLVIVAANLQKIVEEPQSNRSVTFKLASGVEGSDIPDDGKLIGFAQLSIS
# [5] = molecular target: RPS6KA5 (Kin.Dom.1-N-terminal) (Homo sapiens, UniProt O75582); assay: Kinase profiling; assay type: binding; details: read-out: % Ctrl @ 1000 nM
# TESK1 = TESK1 (Homo sapiens, UniProt Q15569); assay: Kinase profiling; assay type: binding; details: read-out: % Ctrl @ 1000 nM
# ACVR2A = ACVR2A (Homo sapiens, UniProt P27037); assay: Kinase profiling; assay type: binding; details: read-out: % Ctrl @ 1000 nM
# MST2 = molecular target: T7, MST2 (Homo sapiens, UniProt Q13188); assay: Kinase profiling; assay type: binding; details: read-out: % Ctrl @ 1000 nM
# T7 construct: T7 phage fusion (stated for most kinases of the panel only); made in house; host or cells: T7 phage in E. coli (BL21-derived) or HEK-293 cells
# CDK4-cyclinD1 = CDK4-cyclinD1 (Homo sapiens, UniProt P11802); assay: Kinase profiling; assay type: binding; details: read-out: % Ctrl @ 1000 nM
compound,measurement,setting,value
Cc1cc(Oc2cc(NC(=O)C3CC3)ncn2)ccc1NC(=O)Nc1ccc(Cl)c(C(F)(F)F)c1 [CBT-102],remaining activity at 1 µM,CHEK2,100%
same,remaining activity at 1 µM,CSNK2A2,100%
same,remaining activity at 1 µM,[1],98%
same,remaining activity at 1 µM,SGK2,92%
same,remaining activity at 1 µM,"EGFR (L858R, T790M)",86%
same,effect on T cell surface marker CD4 (IHC),[2],no significant effect
same,remaining activity at 1 µM,CSNK1A1,99%
same,remaining activity at 1 µM,MEK3,90%
same,remaining activity at 1 µM,CSNK1E,100%
same,remaining activity at 1 µM,MAP4K4,3.4%
same,remaining activity at 1 µM,MKNK2,83%
same,remaining activity at 1 µM,YSK1,100%
same,remaining activity at 1 µM,EPHA1,45%
same,remaining activity at 1 µM,[3],92%
same,remaining activity at 1 µM,LTK,100%
same,remaining activity at 1 µM,NEK6,100%
same,remaining activity at 1 µM,TIE1,20%
same,remaining activity at 1 µM,LIMK1,74%
same,remaining activity at 1 µM,PRKD1,100%
same,remaining activity at 1 µM,BLK,48%
same,remaining activity at 1 µM,NEK7,88%
same,remaining activity at 1 µM,[4],70%
same,remaining activity at 1 µM,CDK2,69%
same,remaining activity at 1 µM,TRKB,71%
same,remaining activity at 1 µM,FRK,6.1%
same,remaining activity at 1 µM,TRKA,74%
same,remaining activity at 1 µM,YSK4,9.6%
same,remaining activity at 1 µM,DDR1,0.3%
same,remaining activity at 1 µM,PFTAIRE2,60%
same,remaining activity at 1 µM,ERK3,100%
same,remaining activity at 1 µM,NDR2,100%
same,remaining activity at 1 µM,EGFR (G719S),84%
same,remaining activity at 1 µM,OSR1,96%
same,remaining activity at 1 µM,[5],100%
same,remaining activity at 1 µM,TESK1,100%
same,remaining activity at 1 µM,ACVR2A,100%
same,remaining activity at 1 µM,MST2,92%
same,remaining activity at 1 µM,CDK4-cyclinD1,99%
